The record followed here is patent publication US9120749B2, “Quinoline derivatives and MELK inhibitors containing the same” (ONCOTHERAPY SCIENCE, INC., priority 2010, dated 2015).

The structures appear in SMILES notation.

As a reminder, the IC50 is the midpoint of a concentration-inhibition curve.

One test addresses MELK (Homo sapiens, UniProt Q14680). Briefly: Kinase assay: MELK activity, phosphorylation of FITC-labeled histone H3 peptide measured by IMAP fluorescence polarization. The test is classed as biochemical. The following applies: 50 micro-M ATP, FITC-labeled histone H3 peptide substrate, IMAP fluorescence polarization; read-out: IC50 (μM) (kinase assay). The essentials:
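FP readout: FITC-histone H3 peptide phosphorylation, read 0.5 h (RT) after stopping with 3x volume of IMAP progressive binding solution. Final DMSO 1%.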
For orientation: Polarisation of emitted light reports the rotation of a fluorescent probe.

The subject of another test is BT-549 cells. As to the kind of experiment: Cell-based assay: anti-proliferative activity, Cell Counting Kit-8, 72 hours (BT-549). Conditions: Homo sapiens, BT-549, 72 h, BT549 cells, MELK-expressing; Cell Counting Kit-8 at 72 hours. The gist of the method:
(§1)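 Cellular growth is read by CCK-8 colorimetric kit 72 h after inhibitor addition to seeded cells, and IC50 values are derived from the resulting data; MELK protein levels in these lines are checked beforehand by immunoblotting whole crude lysate.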
(In general: Tetrazolium dyes change colour on reduction, which living cells bring about.)

Another test concerns T47D cells. Briefly: Cell-based assay: anti-proliferative activity, Cell Counting Kit-8, 72 hours (T47D). Conditions: Homo sapiens, T47D, 72 h. The gist of the method: as §1
In the next test the test system is A549 cells. As to the kind of experiment: Cell-based assay: anti-proliferative activity, Cell Counting Kit-8, 72 hours (A549). Conditions: Homo sapiens, A549, 72 h. The essentials:
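Cell Counting Kit-8 read-out of A549 growth after 72 hours of inhibitor exposure, cells plated in 96-well format. Values reported as IC50.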

A further test deals with HT-1197 cells. As to the kind of experiment: Cell-based assay: anti-proliferative activity, Cell Counting Kit-8, 72 hours (HT-1197, negative control without MELK expression). The following applies: Homo sapiens, HT1197, 72 h. The essentials: as §1
A further test relates to DU4475. As to the kind of experiment: Cell-based assay: anti-proliferative activity, Cell Counting Kit-8, 72 hours (DU4475). Conditions: Homo sapiens, DU-4475, DU4475 cells.
The mark [1] stands for this setting: MELK-expressing, Cell Counting Kit-8 at 72 hours.
[2] abbreviates: HT1197 cells, no MELK expression (negative control), Cell Counting Kit-8 at 72 hours.
The mark [3] stands for this setting: HT1197 cells (negative control, no MELK expression), 72 hours.

Chain of MELK (Q14680 whole entry, looked up): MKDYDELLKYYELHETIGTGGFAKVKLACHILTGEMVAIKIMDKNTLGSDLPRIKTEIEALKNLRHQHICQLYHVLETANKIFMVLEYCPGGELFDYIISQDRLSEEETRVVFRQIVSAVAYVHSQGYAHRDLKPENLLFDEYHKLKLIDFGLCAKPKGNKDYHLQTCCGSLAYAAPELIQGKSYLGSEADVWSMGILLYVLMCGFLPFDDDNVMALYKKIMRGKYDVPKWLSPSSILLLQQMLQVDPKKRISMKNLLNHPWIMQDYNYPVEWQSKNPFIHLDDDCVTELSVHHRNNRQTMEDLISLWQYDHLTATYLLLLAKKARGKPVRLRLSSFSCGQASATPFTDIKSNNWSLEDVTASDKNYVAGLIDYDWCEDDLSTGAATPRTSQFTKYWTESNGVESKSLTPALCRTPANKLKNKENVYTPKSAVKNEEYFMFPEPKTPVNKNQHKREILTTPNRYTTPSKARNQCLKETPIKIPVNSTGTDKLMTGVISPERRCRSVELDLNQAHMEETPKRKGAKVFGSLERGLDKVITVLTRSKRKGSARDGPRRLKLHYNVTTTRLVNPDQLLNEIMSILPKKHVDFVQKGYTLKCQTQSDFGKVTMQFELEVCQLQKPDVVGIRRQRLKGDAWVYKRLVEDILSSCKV

As for `COc1cc(-c2ccc3ncc(C(=O)C4CC4)c(Nc4ccc(CN(C)C)cc4)c3c2)cc(Cl)c1O` [Example 339], the IC50 came to 0.004 µM on MELK; 0.49 µM with BT-549 cells; 0.15 µM in the test with T47D cells (setting [1]); 0.19 µM in the test on A549 cells (setting [1]); 1.9 µM with HT-1197 cells (setting [2]).

`O=C(c1cnc2ccc(-c3ccc(O)c(Cl)c3)cc2c1N[C@H]1CC[C@H](N2CCCC2)CC1)C1CC1` [Example 342, {6-(3-Chloro-4-hydroxyphenyl)-4-[trans-4-(pyrrolidin-1-yl)cyclohexylamino]quinolin-3-yl}(cyclopropyl)methanone]: the IC50 stood at 0.0046 µM at MELK; 0.68 µM in the test with BT-549 cells; 0.25 µM with T47D cells (setting [1]); 0.27 µM in the test on A549 cells (setting [1]); 1.8 µM with HT-1197 cells (setting [2]).

As to `COc1cc(-c2ccc3ncc(C(=O)C4CC4)c(N[C@H]4CC[C@H](N5CCCC5)CC4)c3c2)cc(Cl)c1O` [Example 343, {6-(3-Chloro-4-hydroxy-5-methoxyphenyl)-4-[trans-4-(pyrrolidin-1-yl)cyclohexylamino]quinolin-3-yl}(cyclopropyl)methanone], the 50% inhibitory concentration (IC50) at MELK is 0.0021 µM; in the test on BT-549 cells, 0.68 µM; in the test on T47D cells (setting [1]) it was 0.33 µM; with A549 cells (setting [1]) it was 0.2 µM; with HT-1197 cells (setting [2]), 3.4 µM.

In the case of `CN(C)Cc1ccc(Nc2c(C(=O)C3CC3)cnc3ccc(-c4cc(Cl)c(O)c(Cl)c4)cc23)cc1` [Example 345, Cyclopropyl[6-(3,5-dichloro-4-hydroxyphenyl)-4-{4-[(dimethylamino)methyl]phenylamino}quinolin-3-yl]methanone], the IC50 at MELK was determined as 0.0032 µM; in the test on BT-549 cells it was 0.1 µM; in the test on T47D cells (setting [1]), 0.054 µM; with A549 cells (setting [1]), 0.051 µM; with HT-1197 cells (setting [2]) it was 0.67 µM.

As for `CN(C)CC1CCN(c2c(C(=O)C3CC3)cnc3ccc(-c4cc(F)c(O)c(Cl)c4)cc23)CC1` [Example 347, [6-(3-Chloro-5-fluoro-4-hydroxyphenyl)-4-{4-[(dimethylamino)methyl]piperidin-1-yl}quinolin-3-yl](cyclopropyl)methanone], the 50% inhibitory concentration (IC50) on MELK turned out to be 0.0024 µM; with BT-549 cells, 0.62 µM; in the test with T47D cells (setting [1]), 0.42 µM; in the test with A549 cells (setting [1]), 0.48 µM; with HT-1197 cells (setting [2]), 1.8 µM.

Take `COc1cc(-c2ccc3ncc(C(=O)CC(C)C)c(N[C@H]4CC[C@H](N(C)C)CC4)c3c2)cc(Cl)c1O` [Example 348, 1-{6-(3-Chloro-4-hydroxy-5-methoxyphenyl)-4-[trans-4-(dimethylamino)cyclohexylamino]quinolin-3-yl}-3-methylbutan-1-one]: the IC50 worked out at 0.0043 µM on MELK; 0.93 µM in the test with BT-549 cells; 0.41 µM with T47D cells (setting [1]); 0.47 µM with A549 cells (setting [1]); 3 µM in the test with HT-1197 cells (setting [2]).

For the compound `CN1CCN(C2CCN(c3c(C(=O)C4CC4)cnc4ccc(-c5cc(F)c(O)c(Cl)c5)cc34)CC2)CC1` [Example 349, {6-(3-Chloro-5-fluoro-4-hydroxyphenyl)-4-[4-(4-methylpiperazin-1-yl)piperidin-1-yl]quinolin-3-yl}(cyclopropyl)methanone], the IC50 was determined as 0.0046 µM on MELK; 0.91 µM in the test with BT-549 cells; 0.49 µM in the test on T47D cells (setting [1]); 0.98 µM in the test on A549 cells (setting [1]); 5.8 µM in the test with HT-1197 cells (setting [2]).

With `CN1CCN(C2CCN(c3c(C(=O)C4CC4)cnc4ccc(-c5ccc(O)c(Cl)c5)cc34)CC2)CC1` [Example 350, {6-(3-Chloro-4-hydroxyphenyl)-4-[4-(4-methylpiperazin-1-yl)piperidin-1-yl]quinolin-3-yl}(cyclopropyl)methanone], the concentration for half-maximal inhibition (IC50) at MELK amounted to 0.005 µM; in the test on BT-549 cells it was 0.98 µM; in the test on T47D cells (setting [1]), 0.26 µM; in the test on A549 cells (setting [1]), 0.44 µM; in the test with HT-1197 cells (setting [2]) it was 2.5 µM.

For `COc1cc(-c2ccc3ncc(C(=O)C4CC4)c(N4CCC(N5CCN(C)CC5)CC4)c3c2)cc(Cl)c1O` [Example 351, {6-(3-Chloro-4-hydroxy-5-methoxyphenyl)-4-[4-(4-methylpiperazin-1-yl)piperidin-1-yl]quinolin-3-yl}(cyclopropyl)methanone], the IC50 at MELK stood at 0.0022 µM; in the test on BT-549 cells, 0.67 µM; in the test on T47D cells (setting [1]), 0.34 µM; in the test with A549 cells (setting [1]), 0.33 µM; in the test on HT-1197 cells (setting [2]) it was 3 µM.

Take `CCOc1cc(-c2ccc3ncc(C(=O)C4CC4)c(N4CCC(CN(C)C)CC4)c3c2)ccc1O` [Example 353, Cyclopropyl[4-{4-[(dimethylamino)methyl]piperidin-1-yl}-6-(3-ethoxy-4-hydroxyphenyl)quinolin-3-yl]methanone]: the IC50 on MELK worked out at 0.0017 µM; in the test with BT-549 cells, 1.5 µM; in the test with T47D cells (setting [1]), 0.61 µM; with A549 cells (setting [1]) it was 0.68 µM; with HT-1197 cells (setting [2]) it was 2.5 µM.

On to `COc1cc(-c2ccc3ncc(C(=O)C4CC4)c(-c4ccc(CN(C)C)cc4)c3c2)cc(Cl)c1O` [Example 356], for which the concentration for half-maximal inhibition (IC50) on MELK turned out to be 0.0042 µM; in the test on BT-549 cells it was 0.87 µM; in the test with T47D cells (setting [1]), 0.46 µM; in the test with A549 cells (setting [1]), 0.45 µM; in the test with HT-1197 cells (setting [2]) it was 3.5 µM.

On to `CCN(CC)C1CCC(Nc2c(C(=O)C3CCCC3)cnc3ccc(-c4cc(F)c(O)c(Cl)c4)cc23)CC1` (stereo not drawn) [Example 386, (6-(3-chloro-5-fluoro-4-hydroxyphenyl)-4-(4-(diethylamino)cyclohexylamino)quinolin-3-yl)(cyclopentyl)methanone], for which the IC50 is 0.0092 µM on MELK; 0.41 µM in the test with T47D cells; 0.4 µM in the test with A549 cells (72 hours); 0.78 µM in the test on HT-1197 cells (setting [3]); 0.29 µM in the test with DU4475.

Regarding `CN(C)Cc1ccc(Nc2c(C(=O)C3CCCC3)cnc3ccc(-c4cc(F)c(O)c(Cl)c4)cc23)cc1` [Example 388, (6-(3-chloro-5-fluoro-4-hydroxyphenyl)-4-(4-((dimethylamino)methyl)phenylamino)quinolin-3-yl)(cyclopentyl)methanone], the IC50 on MELK is 0.014 µM; with T47D cells, 0.52 µM; in the test on A549 cells (72 hours), 0.52 µM; in the test with HT-1197 cells (setting [3]) it was 1.5 µM; in the test with DU4475, 0.21 µM.

Regarding `COc1cc(-c2ccc3ncc(C(C)=O)c(N[C@H]4CC[C@H](CN(C)C)CC4)c3c2)cc(Cl)c1O` [Example 392], the IC50 at MELK worked out at 0.0034 µM; with T47D cells it was 0.25 µM; in the test with A549 cells (72 hours) it was 0.27 µM; in the test with HT-1197 cells (setting [3]), 10 µM; with DU4475 it was 0.44 µM.

With `COc1cc(-c2ccc3ncc(C(=O)C4CC4)c(N4CCN(CCN5CCCC5)CC4)c3c2)cc(Cl)c1O` [Example 394, (6-(3-chloro-4-hydroxy-5-methoxyphenyl)-4-(4-(2-(pyrrolidin-1-yl)ethyl)piperazin-1-yl)quinolin-3-yl)(cyclopropyl)methanone], the concentration for half-maximal inhibition (IC50) on MELK came out at 0.0018 µM; in the test on T47D cells, 0.4 µM; with A549 cells (72 hours) it was 0.25 µM; in the test on HT-1197 cells (setting [3]), 5.3 µM; with DU4475, 0.24 µM.

Turning to `COc1cc(-c2ccc3ncc(C#N)c(N[C@H]4CC[C@H](N(C)C)CC4)c3c2)cc(Cl)c1O` [Example 447], the IC50 with T47D cells turned out to be 0.15 µM; in the test with A549 cells (72 hours), 0.4 µM; with HT-1197 cells (setting [3]) it was 2 µM; in the test with DU4475, 0.076 µM.

Regarding `O=C(c1cnc2ccc(-c3cc(Cl)c(O)c(Cl)c3)cc2c1Nc1ccc(CN2CCOCC2)cc1)C1CC1` [Example 463], the IC50 in the test with T47D cells came to 0.52 µM; in the test on A549 cells (72 hours), 0.43 µM; with HT-1197 cells (setting [3]) it was 3.6 µM; with DU4475, 0.26 µM.

Turning to `CN(C)Cc1ccc(Nc2c([S+](C)[O-])cnc3ccc(-c4cc(Cl)c(O)c(Cl)c4)cc23)cc1` (stereo not drawn) [Example 473], the IC50 worked out at 0.43 µM in the test with T47D cells, 1.2 µM with A549 cells (72 hours), 2.4 µM in the test on HT-1197 cells (setting [3]) and 0.6 µM in the test with DU4475.

On to `CN1CCN(Cc2ccc(-c3c(C(=O)C4CC4)cnc4ccc(-c5cc(Cl)c(O)c(Cl)c5)cc34)cc2)CC1` [Example 482, cyclopropyl(6-(3,5-dichloro-4-hydroxyphenyl)-4-(4-((4-methylpiperazin-1-yl)methyl)phenyl)quinolin-3-yl)methanone], for which the IC50 was found to be 0.54 µM in the test on T47D cells, 0.96 µM with A549 cells (72 hours), 3.1 µM in the test with HT-1197 cells (setting [3]) and 0.9 µM in the test on DU4475.

In the case of `COc1cc(-c2ccc3ncc([S+](C)[O-])c(N[C@H]4CC[C@H](N)CC4)c3c2)cc(Cl)c1O` (stereo partly drawn) [Example 500], the IC50 in the test on T47D cells is 1.6 µM; in the test with A549 cells (72 hours), 4.5 µM; in the test with HT-1197 cells (setting [3]) it was 13 µM; in the test with DU4475, 1.8 µM.

On to `N#Cc1ncc(-c2ccc3ncc(C(=O)C4CC4)c(Nc4ccc(CN)cc4)c3c2)cn1` [Example 509, 5-(4-(4-(aminomethyl)phenylamino)-3-(cyclopropanecarbonyl)quinolin-6-yl)pyrimidine-2-carbonitrile], for which the concentration for half-maximal inhibition (IC50) in the test with T47D cells is 0.19 µM; in the test with A549 cells (72 hours) it was 0.79 µM; with HT-1197 cells (setting [3]), 0.95 µM; in the test with DU4475, 0.6 µM.
